In patent US20100168170A1, “Piperidinones Useful in the Treatment of Inflammation” (priority 2007, published 2010):

target: T1, human platelet PDE3 (Homo sapiens, UniProt Q14432); assay: In vitro inhibition of PDE3 phosphodiesterases (platelet extract, [3H]cAMP SPA); type: biochemical; conditions: cAMP as substrate
T1 construct: tissue AllCells, LLC PB027; host or cells: human platelets, 70,000 g supernatant of sonicated lysate
Procedure: Compounds of the invention were evaluated for inhibitory activity against human platelet PDE3 to ascertain PDE3 inhibition. The PDE3 assay was performed using platelet cell extract as described above in Biological Example 1 for the PDE4 assay. Platelets are known contain PDE's 2, 3 and 5. However […] utilize cGMP, so in an assay with cAMP as a substrate they are not detected.
Human platelet cytoplasmic extracts were prepared by modified method of Keller et al. Human platelets (AllCells, LLC; Cat. No. PB027) were sonicated in supplemented lysis buffer. Supplemented lysis buffer consisted of 20 mM Tris, 1 mM EDTA, 1 mM DTT, 0.25 M sucrose, 1 mM benzamidine, 1 μg/mL Leupeptin, 1 μM Pepstatin, and 0.1 mM PMSF, pH 7.5. The platelet lysates were centrifuged at 70,000 g for 30 minutes at 4° C. The supernatants were aliquoted and stored at −80° C.
Reactions were performed in duplicate by the addition of 10 μL PDE3 lysate to 20 μL of assay mix and 20 μL of test compounds in Isoplates (Wallac) for 30 minutes, at 37° C. […] The plate was sealed, shaken for 1 minute and then allowed to settle 30 minutes and the cpm determined using a Wallac Micobeta.
PDE3 enzyme was added in quantities such that less than 15% of substrate was consumed (linear assay conditions).

T1 sequence (Q14432 whole entry): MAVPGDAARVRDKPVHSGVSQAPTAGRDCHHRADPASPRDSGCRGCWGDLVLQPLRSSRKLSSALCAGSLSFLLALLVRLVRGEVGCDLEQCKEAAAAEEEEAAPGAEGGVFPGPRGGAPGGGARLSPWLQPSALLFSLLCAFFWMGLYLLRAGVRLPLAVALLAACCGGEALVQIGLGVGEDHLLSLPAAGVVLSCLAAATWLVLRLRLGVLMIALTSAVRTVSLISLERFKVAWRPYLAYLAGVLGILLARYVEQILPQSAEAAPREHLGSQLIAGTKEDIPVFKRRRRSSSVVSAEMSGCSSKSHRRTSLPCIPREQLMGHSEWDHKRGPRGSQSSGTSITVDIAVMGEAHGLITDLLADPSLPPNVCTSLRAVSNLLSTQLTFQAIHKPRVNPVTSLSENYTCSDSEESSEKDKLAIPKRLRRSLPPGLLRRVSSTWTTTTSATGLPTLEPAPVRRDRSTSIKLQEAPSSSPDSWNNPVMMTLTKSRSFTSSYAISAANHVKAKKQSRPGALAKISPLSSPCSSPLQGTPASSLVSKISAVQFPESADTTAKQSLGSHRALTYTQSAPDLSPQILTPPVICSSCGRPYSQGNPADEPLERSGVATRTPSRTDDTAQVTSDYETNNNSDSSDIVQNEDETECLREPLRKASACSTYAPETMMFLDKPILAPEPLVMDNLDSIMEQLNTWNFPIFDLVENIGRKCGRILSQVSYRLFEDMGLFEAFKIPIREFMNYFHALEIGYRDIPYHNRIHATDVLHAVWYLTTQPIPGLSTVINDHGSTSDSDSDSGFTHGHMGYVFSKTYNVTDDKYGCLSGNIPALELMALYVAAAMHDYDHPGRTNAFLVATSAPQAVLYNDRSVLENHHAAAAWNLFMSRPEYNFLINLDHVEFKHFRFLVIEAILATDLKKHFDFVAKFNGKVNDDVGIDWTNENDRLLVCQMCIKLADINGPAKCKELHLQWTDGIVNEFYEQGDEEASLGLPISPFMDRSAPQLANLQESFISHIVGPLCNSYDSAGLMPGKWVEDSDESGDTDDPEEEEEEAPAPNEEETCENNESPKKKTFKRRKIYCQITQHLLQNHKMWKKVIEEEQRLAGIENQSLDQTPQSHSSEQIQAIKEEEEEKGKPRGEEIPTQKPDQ

| inhibition of PDE3 (assay specificity control) | SMILES |
| --- | --- |
| without effect | COc1ccc(C2CNC(=O)C2)cc1OC1CCCC1 (stereo not drawn) [rolipram] |
| potent inhibitor | COc1cc2c(cc1OC)-c1c/c(=N\c3c(C)cc(C)cc3C)n(C)c(=O)n1CC2 [trequinsin] |

target: PDE4 enzyme (U937 lysate or recombinant hPDE4); assay: In vitro inhibition of PDE4 phosphodiesterases ([3H]cAMP SPA enzyme assay, Method A); type: biochemical, human; conditions: Biological Example 1, Method A
Procedure: PDE4 U937 cytoplasmic extracts were prepared by a modified procedure of the assay described in MacKenzie, S. J. and Houslay, M. D., “Action of rolipram on specific PDE4 cAMP phosphodiesterase isoforms and on the phosphorylation of cAMP-response-element-binding protein (CREB) and p38 mitogen-activated protein (MAP) kinase in U937 monocytic cells”, Biochem J. (2000), 347(Pt 2):571-8, by lysis of U937 cells (ATCC: Catalogue No. CRL-159) in M-PER Lysis buffer (Pierce) containing 10% protease inhibitor cocktail (Sigma). The cell lysates were then centrifuged at 30,000 rpm for 15 minutes at 4° C. The supernatants were aliquoted and stored at −80° C.
An alternative source of PDE4 enzymes was from recombinant human PDE4 obtained from baculovirus-SF9 cells expression system. cDNA containing PDE4D1 was cloned into a baculovirus vector, insect cells (SF9) were then infected and cells cultured to express the PDE4 protein. The cells were lysed and used directly in assay or partially purified using standard procedures. The process can be used for other PDE4 and PDE enzymes.
Compounds of the invention were evaluated for inhibitory activity against PDE4 enzymes by the following assay Method A or B.
PDE4 assay based on modified procedure of Phosphodiesterase [^3H]cAMP SPA Enzyme Assay (Amersham Biosciences, code TRKQ 7090). In this assay, PDE4 enzymes converts [^3H]cAMP to [^3H]5′-AMP. The assay is quenched by the addition of SPA yttrium silicate beads which preferentially bind linear nucleotides over cyclic nucleotides in the presence of zinc sulphate.
Reactions were performed in duplicate by the addition of 10 μl PDE4 enzyme (U937 lysate or recombinant hPDE4) to 20 μL of assay mix and 20 μL of test compounds in Isoplates (Wallac) for 30 minutes, at 37° C. The final assay mixture contained: 50 mM Tris (pH 7.5), 8.3 mM MgCl2, 1.7 mM EGTA and [^3H]cAMP (0.025 μCi) (Amersham). Assay was terminated by addition 25 μL SPA beads. The plate was sealed, shaken for 1 minute and then allowed to settle 30 minutes and the cpm determined using a Wallac Micobeta.
PDE4 enzyme was added in quantities such that less than 15% of substrate was consumed (linear assay conditions).

| IC50 [nM] | SMILES |
| --- | --- |
| 1340 | COc1ccc([C@H]2CNC(=O)[C@@H](Cc3ccc(OCC(N)=O)cc3)C2)cc1OC1CCCC1 [2-(4-(((3R,5S)-5-(3-(cyclopentyloxy)-4-methoxyphenyl)-2-oxopiperidin-3-yl)methyl)phenoxy)acetamide] |
| 1100 | COc1ccc([C@@H]2C[C@H](Cc3cccc(C)c3)C(=O)N(C(C)=O)C2)cc1OC1CCCC1 [(3R,5S)-1-acetyl-5-(3-(cyclopentyloxy)-4-methoxyphenyl)-3-(3-methylbenzyl)piperidin-2-one] |
| 189 | COc1ccc([C@H]2CNC(=O)[C@@H](Cc3cccc(OCc4ccccc4)c3)C2)cc1OC1CCCC1 [(3R,5S)-3-(3-(benzyloxy)benzyl)-5-(3-(cyclopentyloxy)-4-methoxyphenyl)piperidin-2-one] |
| 6780 | COc1ccc([C@@H]2C[C@H](Cc3cccc(C)c3)C(=O)N(CC(C)C)C2)cc1OC1CCCC1 [(3R,5S)-5-(3-(cyclopentyloxy)-4-methoxyphenyl)-1-isobutyl-3-(3-methylbenzyl)-piperidin-2-one] |
| 578 | COc1ccc([C@H]2CNC(=O)[C@H](CCCCCc3ccccc3)C2)cc1OC1CCCC1 [(3R,5S)-5-(3-(cyclopentyloxy)-4-methoxyphenyl)-3-(5-phenylpentyl)piperidin-2-one] |
| 101 | COc1ccc([C@H]2CNC(=O)[C@H](Cc3ccc(F)c(F)c3)C2)cc1OC1CCCC1 [(3S,5S)-5-(3-(cyclopentyloxy)-4-methoxyphenyl)-3-(3,4-difluorobenzyl)piperidin-2-one] |
| 604 | CCCNc1cccc(C[C@@H]2C[C@@H](c3ccc(OC)c(OC4CCCC4)c3)CNC2=O)c1 [(3S,5S)-5-(3-(cyclopentyloxy)-4-methoxyphenyl)-3-(3-(propylamino)benzyl)-piperidin-2-one] |
| 457 | COc1ccc([C@H]2CNC(=O)[C@H](Cc3ccc(Oc4ccccc4)cc3)C2)cc1OC1CCCC1 [(3S,5S)-5-(3-(cyclopentyloxy)-4-methoxyphenyl)-3-(4-phenoxybenzyl)piperidin-2-one] |
| 379 | COc1cc(CC2C[C@@H](c3ccc(OC)c(OC4CCCC4)c3)CNC2=O)ccc1OC1CCCC1 (stereo partly drawn) [(5S)-3-(4-(cyclopentyloxy)-3-methoxybenzyl)-5-(3-(cyclopentyloxy)-4-methoxyphenyl)piperidin-2-one] |
| 519 | COc1cc(CC2C[C@@H](c3ccc(OC)c(-c4ccccc4)c3)CNC2=O)ccc1OC1CCCC1 (stereo partly drawn) [(5S)-3-(4-(cyclopentyloxy)-3-methoxybenzyl)-5-(6-methoxybiphenyl-3-yl)piperidin-2-one] |
| 1280 | CCCCCCCOc1cc([C@H]2CNC(=O)C(Cc3ccccc3)C2)ccc1OC (stereo partly drawn) [(5S)-3-benzyl-5-(3-(heptyloxy)-4-methoxyphenyl)piperidin-2-one] |
| 1040 | COc1ccc([C@H]2CNC(=O)C(C(C)c3ccccc3)C2)cc1OC1CCCC1 (stereo partly drawn) [(5S)-5-(3-(cyclopentyloxy)-4-methoxyphenyl)-3-(1-phenylethyl)piperidin-2-one] |
| 5080 | CCOc1cc([C@H]2CNC(=O)C(Cc3ccc(F)cc3)(Cc3ccc(F)cc3)C2)ccc1OC [(S)-5-(3-ethoxy-4-methoxyphenyl)-3,3-bis(4-fluorobenzyl)piperidin-2-one] |
